Measured values reported in patent publication US5470855A, “Certain heterocyclic thiazole derivatives and their therapeutic use” (Sanofi, priority 1989, dated 1995).

Tests used:
mouse = experiment: protection against PAF-induced lethal systemic shock in the mouse; type: in vivo; conditions: oral dose of 5 mg/kg, PAF 100 μg/kg
Excerpt: Haemostas, 56(1) 40-44 (1986) and that of protection against lethal systemic shock in the mouse, which is described in J. Pharmacol. Exp. Ther 247(2) 617-23 (1988).

rabbit platelets = experiment: inhibition of the aggregation of rabbit platelets induced by the PAF-acether; type: cell-based; conditions: Oryctolagus cuniculus, Platelet, PAF introduced into the medium at 4×10^-10 M, read-out: IC50 (concentration inhibiting 50% of the aggregation induced by the PAF)
Excerpt: Thus in vitro it is possible to study the inhibition of the aggregation of rabbit platelets induced by the PAF-acether according to the method described in Thrombosis Research 41 211-226 (1986). […] Therap.

guinea pig = experiment: PAF-induced bronchospasm in the guinea pig; type: in vivo

Row | SMILES | protection from the lethal systemic shock induced by the PAF (mouse) | further results
1 | Cc1oc(N(CCN(C)C)Cc2cccnc2)nc1-c1ccc(Cl)cc1Cl [Example 79, 2(N-[2-N',N'-dimethylaminoethyl]N-[3-pyridylmethyl]amino) 4-(2,4-dichlorophenyl)5-methyl oxazole] | protect the mouse from the lethal systemic shock | –
2 | Cc1sc(N(CCN(C)C)Cc2cccnc2)nc1-c1ccc(Cl)cc1Cl [Example 50, 2-(N-[2-N',N'-dimethylaminoethyl]N-[3-pyridylmethyl]amino)4-(2,4-dichlorophenyl) 5-methyl thiazole] | protect the mouse from the lethal systemic shock | –
3 | Cc1nnc2n1-c1sc(CCC(=O)N3CCOCC3)cc1C(c1ccccc1Cl)=NC2 [WEB 2086] | – | IC50 (rabbit platelets): 50 nM
4 | CC(C)c1cc(C(C)C)c(-c2nc(N(CCN(C)C)Cc3cccnc3)sc2Br)c(C(C)C)c1 [Example 90, 2-(N-[2-N',N'-dimethylaminoethyl]N-[3-pyridylmethyl]amino) 5-bromo 4-(2,4,6-triisopropylphenyl) thiazole] | protect the mouse from the lethal systemic shock | –
5 | Cc1cc(C)c(-c2csc(N(CCN(C)C)Cc3cccnc3)n2)c(C)c1 [Example 14, 2-(N-[2-N',N'-dimethylaminoethyl]N-[3-pyridylmethyl]amino)4-(2,4,6-trimethylphenyl)thiazole] | protect the mouse from the lethal systemic shock | –
6 | CC(C)c1cc(C(C)C)c(-c2nc(N(CCN(C)C)Cc3cccnc3)sc2Cl)c(C(C)C)c1 [Example 91, 2-(N-[2-N',N'-dimethylaminoethyl]N-[3-pyridylmethyl]amino) 5-chloro 4-(2,4,6-triisopropylphenyl)thiazole] | protect the mouse from the lethal systemic shock | –
7 | CC(C)c1cc(C(C)C)c(-c2csc(N(CCN(C)C)Cc3cccnc3)n2)c(C(C)C)c1 [Example 2] | – | duration of complete inhibition of the bronchospasm (guinea pig; IV dose of 1 mg/kg): more than 96 hours; duration of complete inhibition of the bronchospasm (guinea pig; oral dose of 3 mg/kg): more than 96 hours
